In brackets after ≈: the same amount, converted by molar mass.
What was measured:
Type in all cases: cell-based
[1] = test system: VERO cells; experiment: Cytotoxicity on Vero cell monolayers (MNTD50); conditions: maximum 50% non-toxic dose, 5 days
Procedure: The cytotoxicity was evaluated on Vero cell monolayers (ICN-Flow). They were inoculated in 6-well plates each containing 9×10^4 cells and incubated in DMEM with 5% FCS for 24 h at 37° C. in a 5% CO2 incubator. After 24 h of culture, the medium was changed and a new medium containing decreasing doses of the substances under study was added.
After 5 days, the cells were trypsinized and counted in a Neubauer chamber under a light microscope. All the tests were done in triplicate. The maximum 50% non-toxic dose (MNTD50) was defined as the drug concentration that decreased cell multiplication less than 50% with respect to the control.

[2] = test system: M. tuberculosis 103471; experiment: Antimycobacterial activity, MIC in Middlebrook 7H9 broth (NCCLS procedure); conditions: for M. tuberculosis 103471 MIC: extracellular M. tuberculosis 103471
[3] = test system: M. smegmatis 103599; experiment: Antimycobacterial activity toward atypical mycobacteria, MIC in broth
[4] = test system: M. marinum 6423; experiment: as above
[5] = test system: M. avium 103317; experiment: as above

SMILES | MNTD50 (μg/mL) VERO cells [1] [µg/mL] | M. tuberculosis 103471 MIC [2] [µg/mL] | MIC (μg/mL) M. smegmatis 103599 [3] [µg/mL] | MIC (μg/mL) M. marinum 6423 [4] [µg/mL] | MIC (μg/mL) M. avium 103317 [5] [µg/mL] | MIC ([2]; Mycobacterium tuberculosis, 103471, read-out: M. tuberculosis 103471 MIC (μg/mL)) [µg/mL] | MIC ([3]; Mycolicibacterium smegmatis, 103599, read-out: MIC (μg/mL) M. smegmatis 103599) [µg/mL] | MIC ([4]; Mycobacterium marinum, 6423, read-out: MIC (μg/mL) M. marinum 6423) [µg/mL] | MIC ([5]; Mycobacterium avium, 103317, read-out: MIC (μg/mL) M. avium 103317) [µg/mL]
Cc1c(CN2CCN(C)CC2)cc(-c2ccc(F)cc2)n1-c1ccccc1Cl [Compound 7b] | 8 | 4 | >16 | >16 | >16 | – | – | – | –
Cc1c(CN2CCSCC2)cc(-c2ccc(F)cc2)n1-c1ccc(Cl)cc1Cl [Compound 7g] | 4 | 1 | 16 (≈ 36.7 µM) | 8 (≈ 18.4 µM) | 2 (≈ 4.59 µM) | – | – | – | –
Cc1c(CN2CCSCC2)cc(-c2ccccc2F)n1-c1ccc(F)cc1 [Compound 6c] | 16 | 0.5 | >16 | >16 | 16 (≈ 41.6 µM) | – | – | – | –
Cc1c(CN2CCSCC2)cc(-c2ccc(F)cc2)n1-c1cccc2ccccc12 [Compound 7k] | 2 | 4 | >16 | 16 (≈ 38.4 µM) | 8 (≈ 19.2 µM) | – | – | – | –
Cc1c(CN2CCN(C)CC2)cc(-c2ccc(F)cc2)n1-c1ccc(F)cc1F [Compound 7j] | 16 | 16 | >16 | 16 (≈ 40.1 µM) | 16 (≈ 40.1 µM) | – | – | – | –
[H]/N=C(/N)N[C@H]1[C@H](O)[C@@H](O)[C@H](O[C@@H]2O[C@@H](C)[C@](O)(C=O)[C@H]2O[C@@H]2O[C@@H](CO)[C@H](O)[C@@H](O)[C@@H]2NC)[C@@H](N/C(N)=N\[H])[C@@H]1O [Streptomycin, reference compound] | >64 | – | – | – | – | 0.5 (≈ 0.86 µM) | 8 (≈ 13.8 µM) | 32 (≈ 55 µM) | 8 (≈ 13.8 µM)
Cc1ccc(-c2cc(CN3CCN(C)CC3)c(C)n2-c2ccc(F)cc2)cc1 [Compound 6f] | 8 | 4 | 8 (≈ 21.2 µM) | >16 | 4 (≈ 10.6 µM) | – | – | – | –
Cc1c(CN2CCN(C)CC2)cc(-c2ccc(Cl)cc2Cl)n1-c1ccc(F)cc1 [Compound 6h] | 16 | 8 | >16 | >16 | 2 (≈ 4.63 µM) | – | – | – | –
Cc1c(CN2CCN(C)CC2)cc(-c2cccc3ccccc23)n1-c1ccc(F)cc1 [Compound 6l] | 4 | 16 | >16 | 16 (≈ 38.7 µM) | 8 (≈ 19.3 µM) | – | – | – | –
Cc1c(CN2CCSCC2)cc(-c2ccc(Cl)cc2Cl)n1-c1ccc(F)cc1 [Compound 6g] | 64 | 2 | >16 | >16 | 4 (≈ 9.19 µM) | – | – | – | –
Cc1c(CN2CCN(C)CC2)cc(-c2ccccc2F)n1-c1ccc(F)cc1 [Compound 6d] | 4 | 16 | >16 | >16 | >16 | – | – | – | –
Cc1c(CN2CCN(C)CC2)cc(-c2ccc(F)cc2F)n1-c1ccc(F)cc1 [Compound 6j] | 8 | 4 | >16 | >16 | 16 (≈ 40.1 µM) | – | – | – | –

From US8012970B2, “Derivatives of 1-{[1,5-bis(4-chlorophenyl)-2-methyl-1H-pyrrol-3-yl]methyl}-4-methylpiperazine, synthesis process and uses thereof” (priority 2005, dated 2011)
